Source: patent publication US20240216900A1, “SABRE CATALYSTS CONTAINING FLUORINATED CARBON CHAINS FOR DELIVERY OF METAL-FREE MRI CONTRAST AGENTS” (The U.S.A., as represented by the Secretary, Department of …, priority 2022, published 2024)

Experiment: Relaxation dynamics of hyperpolarized [1-13C]pyruvate (build-up time Tb and T1)
Settings: 0.4 μT
Source text: In addition, the relaxation dynamics of the [1-^13C]pyruvate were also studied.
In addition, relaxation dynamics at earth field and 1.8 T are about the same as a non-fluorinated SABRE catalyst T1=28.9±1.6 s and 66.5±7 s, respectively.

SMILES: CC(=O)C(=O)O [[1-^13C]pyruvate, sodium [1-^13C]pyruvate]
- total P13C (bound+free) build-up time Tb (Example 7: Example 4 catalyst, DMSO, methanol): 6.6 ± 3.0 s
- total P13C (bound+free) build-up time Tb (Example 25: Example 4 catalyst, DMSO, NFBME/MeOD fluorous mixture): 3.0 ± 0.8 s
- total P13C (bound+free) build-up time Tb (Example 31: Example 4 catalyst, DMSO, CD3OD/Novec 7100): 3.8 ± 0.6 s
- total P13C (bound+free) build-up time Tb (Example 32: Example 4 catalyst, PTMSO, CD3OD/Novec 7100): 8.9 ± 2.5 s
